Where two headings read alike, the source gives them in different places.
Tests used:
[1] = test system: ovariectomy-induced bone loss in mice; test: Trabecular bone strength, compression test of second lumbar vertebra, ovariectomized mice; type: in vivo; conditions: OVX mice, vs vehicle; GL-0001 25, GL-0007 25 and 100 nmoles/kg/day; zoledronic acid once 100 μg/kg
Experimental: At 16 weeks of age, ALZET osmotic pumps (model number 2006, Durect Corp., Cupertino, CA) filled with the below saline or peptide were implanted subcutaneously between the two scapula under general anesthesia in 32 mice. Successful filling of pumps was verified by weighting the pump before and after filling. At 20 weeks of age, ALZET osmotic pumps were replaced by similar pumps to ensure delivery for four new weeks. […] This dose and regimen of zoledronic acid was equivalent to the 5 mg infusion approved for the treatment of post-menopausal osteoporosis in humans. Compression experiments were performed on L2. Briefly, vertebral bodies were carefully dissected and glued with cyanoacrylate glue on a Plexiglas plate and then incubated in saline at 4° C. until use the next day. L2 vertebral bodies were compressed to failure at a displacement rate of 1 mm/min using an Instron 5942 device. Load and displacement of the upper plateau were recorded at a sampling rate of 100 Hz. Maximum load and stiffness were computerized from load-displacement curves.

[2] = test system: ovariectomy-induced bone loss in mice; test: Bone matrix composition by FTIRI at the femur midshaft, ovariectomized mice; type: in vivo; conditions: OVX mice, cortical bone femur, vs vehicle
Experimental: At 16 weeks of age, ALZET osmotic pumps (model number 2006, Durect Corp., Cupertino, CA) filled with the below saline or peptide were implanted subcutaneously between the two scapula under general anesthesia in 32 mice. Successful filling of pumps was verified by weighting the pump before and after filling. At 20 weeks of age, ALZET osmotic pumps were replaced by similar pumps to ensure delivery for four new weeks. […] This dose and regimen of zoledronic acid was equivalent to the 5 mg infusion approved for the treatment of post-menopausal osteoporosis in humans. After three-point bending experiments, femurs were embedded undecalcified in pMMA at 4° C. One-micrometer cross-sectional sections of the midshaft femur were sandwiched between BaF2 optical windows and Fourier transform infrared imaging (FTIRI) assessment was performed in the posterior quadrant. FTIRI was performed with a vertex 70 spectrometer (Bruker, Ettlingen, Germany) interfaced with a Hyperion 3000 microscope and a focal plane array detector (64×64 pixels) covering a field of view of 180×180 μm. Nine field-of-view were stitched together to allow sufficient bone to be analyzed. Sections were scanned with a spectral resolution of 8 cm^-1 (spectral region 900-2000 cm^-1). Each spectrum was corrected for Mie scattering with the […]5 algorithm (kind gift of Prof Peter Gardner, University of Manchester, UK) prior to be subjected to pMMA subtraction. Evaluation of spectral images was done with a lab-made routine script in Matlab R2016b (The Mathworks, Natick, MA) as described in Aguado et al. (2017) Calcif Tissue Int 100:332-340. FTIR bone parameters ([…] (2012) Methods Mol Biol 816:517-525) calculated were: (1) phosphate/amide ratio (area of v1, v3 phosphate/area amide1); (2) acid phosphate content (intensity ratio 1127 cm^-1/1096 cm^-1) (Spevak et al. (2013) Calcif Tissue Int 92:418-428); (3) mineral crystallinity (intensity ratio 1030 cm^-1/1020 cm^-1), reflecting crystal size and perfection; […] (2001) J Bone Miner Res 16:893-900). For each of the compositional parameters, the mean and full width at half maximum of the pixel distribution (excluding the zero background values) were computed and represented as mean and heterogeneity.

[3] = test system: MC3T3-E1 subclone 4 cells; type: cell-based, murine
Experimental: Briefly, MC3T3-E1 subclone 4 cells have been grown and propagated in α-MEM supplemented with 5% fetal bovine serum (FBS), 5% bovine calf serum (BCS), 100 U/mL penicillin, and 100 μg/mL streptomycin in a humidified atmosphere enriched with 5% CO2 at 37° C. […] This day was considered as day 1. The differentiation medium was replenished every two days. […] Cultures were rinsed at least six times with milliQ water, fixed in absolute ethanol, scrapped off the culture dish and transferred onto BaF2 windows where they were air-dried. Integrity of the collagen extracellular matrix was verified by comparing the obtained Fourier transform infrared spectrum with those of commercial collagen. Spectral analysis was performed using a Bruker Vertex 70 spectrometer (Bruker optics, Ettlingen, Germany) interfaced with a Bruker Hyperion 3000 infrared microscope equipped with a standard single element Mercury Cadmium Telluride (MCT) detector. Calibration of the infrared spectrometer is done once a week with a polystyrene film standard (Bruker optics). Infrared spectra were recorded at a resolution of 4 cm^-1, with an average of 32 scans in transmission mode. Background spectral images were collected under identical conditions from the same BaF2 windows at the beginning and end of each experiment to ensure instrument stability. At least 5 spectra were acquired for each condition and analyzed with a lab-made routine script (version 2.0) in Matlab R2016b (The Mathworks, Natick, MA). […] For GIP and GLP-2 dataset, the inventors used the collagen maturity data previously acquired and analyzed. First of all, collagen maturity obtained in control cultures, i.e. in the absence of double GIP/GLP-2 analogues, were averaged and subtracted to the all dataset. […] For each concentration of peptide, the mean, SD and number of events were computed. […] The GraphPad Prism analysis consisted in: […] Statistical Analysis […] Data are represented as mean±SD.

Murine Raw 264.7 cells = type: cell-based; conditions: for IC50 computed from curve fitting of osteoclastogenesis vs. peptide concentration: Raw 264.7, RANKL 10 ng/ml, 110 h, * values determined from previous experiments
Experimental: Murine Raw 264.7 cells were grown and expanded in propagation medium containing Dulbecco's modified Eagle medium (DMEM-Gibco) supplemented with 10% fetal bovine serum (FBS-Lonza), 100 U/mL penicillin and 100 μg/mL streptomycin (Gibco) in a humidified atmosphere enriched with 5% CO2 at 37° C. The first passage after thawing Raw 264.7 cells was considered as passage 1. Cells were used up to passage 8. […] Cultures were rinsed three times in distilled water and the residual activity was inhibited by 4% NaF (Sigma-Aldrich) for 30 min. Cells were then rinsed in distilled water and allowed to dry. TRAcP positive cells, with more than three nuclei, were identified as osteoclasts. The number of newly generated osteoclasts was assessed using light microscopic examination by a histologist that was blinded to the treatment intervention. […] For each concentration of peptide, the mean, SD and number of events were computed.

EC50 [3] [nM] | EC50 (Murine Raw 264.7 cells) [nM] | SMILES | bone stiffness, compression of second lumbar vertebra [1] | increase in acid phosphate content heterogeneity ([2]; 25 nmoles/kg/day) [%] | increase in collagen maturity heterogeneity ([2]; 25 nmoles/kg/day) [%] | increase in mean collagen maturity ([2]; 25 nmoles/kg/day) [%] | Emax for dose-effect curves on collagen maturity ([3]; MC3T3-E1, day 14) [%] | EC50 ([3]; MC3T3-E1, day 14, mean ± SD of 5 individual experiments, read-out: EC50 for dose-effect curves on collagen maturity) [nM] | IC50 computed from curve fitting of osteoclastogenesis vs. peptide concentration (Murine Raw 264.7 cells) [nM] | EC50 (Murine Raw 264.7 cells; Raw 264.7, * data obtained in previous experiments, read-out: EC50 of inhibitory effect on osteoclastogenesis) [nM] | augmentation of acid phosphate content heterogeneity ([2]; 100 nmoles/kg/day) [%]
 |  | CC[C@H](C)[C@H](NC(=O)[C@H](CO)NC(=O)[C@H](CCSC)NC(=O)[C@H](CC(=O)O)NC(=O)[C@H](CO)NC(=O)CNC(=O)[C@H](Cc1ccccc1)NC(=O)[C@H](CO)NC(=O)CNC(=O)[C@H](CCC(=O)O)NC(=O)CNC(=O)[C@@H](N)Cc1c[nH]cn1)C(=O)N[C@@H](C)C(=O)N[C@@H](CC(C)C)C(=O)N[C@@H](CC(=O)O)C(=O)N[C@@H](CCCCN)C(=O)N[C@@H](CC(C)C)C(=O)N[C@@H](C)C(=O)N[C@@H](C)C(=O)N[C@@H](CCCNC(=N)N)C(=O)N[C@@H](CC(=O)O)C(=O)N[C@@H](Cc1ccccc1)C(=O)N[C@H](C(=O)N[C@@H](CC(N)=O)C(=O)N[C@@H](Cc1c[nH]c2ccccc12)C(=O)N[C@@H](CC(C)C)C(=O)N[C@@H](CC(C)C)C(=O)N[C@@H](CCC(N)=O)C(=O)N[C@H](C(=O)N[C@@H](CCCCN)C(=O)N[C@H](C(=O)N[C@H](C(=O)N[C@@H](CC(=O)O)C(=O)O)[C@@H](C)O)[C@@H](C)CC)[C@@H](C)O)C(C)C [GL-0001] | significantly reduced | 21 | 28 | 10 | 207.0 | 0.0262 ± 0.0171 | 0.0142 | 0.0142 | 
0.0259 ± 0.0145 | 0.0062 | CC[C@H](C)[C@H](NC(=O)[C@H](CO)NC(=O)[C@H](Cc1ccccc1)NC(=O)[C@H](CC(=O)O)NC(=O)[C@H](CO)NC(=O)CNC(=O)[C@H](Cc1ccccc1)NC(=O)[C@H](CO)NC(=O)CNC(=O)[C@H](CCC(=O)O)NC(=O)CNC(=O)[C@@H](N)Cc1c[nH]cn1)C(=O)N[C@@H](C)C(=O)N[C@@H](CC(C)C)C(=O)N[C@@H](CC(=O)O)C(=O)N[C@@H](CCCCN)C(=O)N[C@@H](CC(C)C)C(=O)N[C@@H](C)C(=O)N[C@@H](C)C(=O)N[C@@H](CCCNC(=N)N)C(=O)N[C@@H](CC(=O)O)C(=O)N[C@@H](Cc1ccccc1)C(=O)N[C@H](C(=O)N[C@@H](CC(N)=O)C(=O)N[C@@H](Cc1c[nH]c2ccccc12)C(=O)N[C@@H](CC(C)C)C(=O)N[C@@H](CC(C)C)C(=O)N[C@@H](CCC(N)=O)C(=O)N[C@H](C(=O)N[C@@H](CCCCN)C(N)=O)[C@@H](C)O)C(C)C [GL-0007] | significantly reduced |  |  |  | 232.3 |  | 0.0062 |  | 18

Source: patent US12617831B2 (UNIVERSITE D'ANGERS, priority 2019, dated 2026)
